Reference: ChEMBL document CHEMBL1136865, “Effects of detergents on the West Nile virus protease activity” (Bioorg Med Chem, 2009)
The source made the active and inactive calls. The calls are words filed in the database; no cut-off is given here.

Assays:
West Nile virus [1] = assay: Increase in West Nile virus NS3 protease activity at =>0.01 to 0.1 % by spectrofluorimetry using Boc-Gly-Lys-Arg-AMC substrate relative to control
West Nile virus [2] = assay: Increase in West Nile virus NS3 protease activity up to 0.5% by spectrofluorimetry using Boc-Gly-Lys-Arg-AMC substrate relative to control

- Activity (West Nile virus [1]): inactive
- Activity (West Nile virus [2]): inactive
Structure (SMILES): C[C@H](CCC(=O)NCCC[N+](C)(C)CCCS(=O)(=O)[O-])[C@H]1CC[C@H]2[C@@H]3[C@H](O)C[C@@H]4C[C@H](O)CC[C@]4(C)[C@H]3C[C@H](O)[C@]12C
